pIC50: −log10 of the molar value.
How the values were obtained:
[1] = molecular target: T1, Mucosa-associated lymphoid tissue lymphoma translocation protein 1 (Homo sapiens, UniProt Q9UDY8); assay: Inhibition of MALT1 (unknown origin)
T1 sequence (Q9UDY8 whole entry): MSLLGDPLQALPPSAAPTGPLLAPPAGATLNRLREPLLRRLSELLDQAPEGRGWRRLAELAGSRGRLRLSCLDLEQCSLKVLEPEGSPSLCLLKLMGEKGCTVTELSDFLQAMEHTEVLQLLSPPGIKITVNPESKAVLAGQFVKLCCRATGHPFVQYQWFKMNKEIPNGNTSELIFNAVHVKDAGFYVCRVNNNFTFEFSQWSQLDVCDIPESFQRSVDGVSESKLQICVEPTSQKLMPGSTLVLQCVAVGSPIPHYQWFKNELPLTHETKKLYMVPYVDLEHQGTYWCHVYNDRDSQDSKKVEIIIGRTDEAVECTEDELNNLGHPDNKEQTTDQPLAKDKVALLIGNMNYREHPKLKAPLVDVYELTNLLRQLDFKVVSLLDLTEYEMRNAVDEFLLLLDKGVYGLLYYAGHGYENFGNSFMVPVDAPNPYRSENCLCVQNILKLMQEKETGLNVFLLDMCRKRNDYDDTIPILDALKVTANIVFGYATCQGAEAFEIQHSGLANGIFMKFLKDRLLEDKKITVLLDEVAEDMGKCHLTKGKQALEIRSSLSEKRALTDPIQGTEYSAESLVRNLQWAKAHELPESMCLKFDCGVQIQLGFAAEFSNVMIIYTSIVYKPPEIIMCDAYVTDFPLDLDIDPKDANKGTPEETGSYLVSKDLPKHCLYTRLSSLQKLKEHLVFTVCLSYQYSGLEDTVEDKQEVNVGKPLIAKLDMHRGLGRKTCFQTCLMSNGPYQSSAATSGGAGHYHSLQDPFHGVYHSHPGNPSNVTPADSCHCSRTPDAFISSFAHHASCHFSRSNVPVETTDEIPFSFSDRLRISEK

[2] = Inhibition of IL-2 production in PMA/ionomycin stimulated human Jurkat T cells; type: functional, cell-based
[3] = Apparent permeability of the compound in human Caco-2 cells; type: ADME, cell-based
[4] = Drug concentration in BALB/cAnNCrlCr mouse at 1 mg/kg, iv administered as single dose; type: ADME, organism-based; conditions: in vivo
[5] = Half-life in BALB/cAnNCrlCr mouse at 2 mg/kg, po administered as single dose; type: ADME, organism-based; conditions: in vivo
[6] = Total clearance in BALB/cAnNCrlCr mouse at 1 mg/kg, iv administered as single dose; type: ADME, organism-based; conditions: in vivo
[7] = Tmax in BALB/cAnNCrlCr mouse at 2 mg/kg, po administered as single dose; type: ADME, organism-based; conditions: in vivo
[8] = AUC (0 to infinity) in BALB/cAnNCrlCr mouse at 1 mg/kg, iv administered as single dose; type: ADME, organism-based; set-up: dose 1 mg/kg, route iv; conditions: in vivo
[9] = AUC (0 to infinity) in BALB/cAnNCrlCr mouse at 2 mg/kg, po administered as single dose; type: ADME, organism-based; set-up: dose 2 mg/kg, route po; conditions: in vivo
[10] = Oral bioavailability in BALB/cAnNCrlCr mouse at 2 mg/kg administered as single dose; type: ADME, organism-based; conditions: in vivo
[11] = Half-life in BALB/cAnNCrlCr mouse at 1 mg/kg, iv administered as single dose; type: ADME, organism-based; conditions: in vivo
[12] = Cmax in BALB/cAnNCrlCr mouse at 2 mg/kg, po administered as single dose; type: ADME, organism-based; set-up: dose 2 mg/kg, route po; conditions: in vivo

| Structure (SMILES) | pIC50 [1] | other results |
| --- | --- | --- |
| O=C(NCCc1ccccc1)c1cc(-c2ccc(Cl)cc2)n(-c2ccc(Cl)cc2)n1 | < 4.60 |  |
| N/C(=N\S(=O)(=O)c1cccs1)NCc1cc(-c2ccc(Cl)cc2)n(-c2ccc(Cl)cc2)n1 | 6.60 | pIC50 [2]: 5.89 |
| N/C(=N\S(=O)(=O)Cc1ccccc1)NCc1cc(-c2ccc(Cl)cc2)n(-c2ccc(Cl)cc2)n1 | 6.11 |  |
| N/C(=N\S(=O)(=O)c1ccncc1)NCc1cc(-c2ccc(Cl)cc2)n(-c2ccc(Cl)cc2)n1 | 6.25 |  |
| CC(C)[C@H](N)C(=O)NCc1cc(-c2ccc(Cl)cc2)n(-c2ccc(Cl)cc2)n1 | 5.73 |  |
| O=C(NCc1cc(-c2ccc(Cl)cc2)n(-c2ccc(Cl)cc2)n1)c1ccccc1 | < 4.60 |  |
| NC(=O)NCc1cc(-c2ccc(Cl)cc2)n(-c2ccc(Cl)cc2)n1 | 5.84 |  |
| N#C/N=C(\N)NCc1cc(-c2ccc(Cl)cc2)n(-c2ccc(Cl)cc2)n1 | 5.80 |  |
| N/C(=N\S(=O)(=O)C1CC1)NCc1cc(-c2ccc(Cl)cc2)n(-c2ccc(Cl)cc2)n1 | 6.59 |  |
| CCN/C(=N\S(C)(=O)=O)NCc1cc(-c2ccc(Cl)cc2)n(-c2ccc(Cl)cc2)n1 | 6.07 |  |
| Cn1ccc(S(=O)(=O)/N=C(\N)NCc2cc(-c3ccc(Cl)cc3)n(-c3ccc(Cl)cc3)n2)n1 | 6.29 |  |
| CN(C)CC(=O)NCc1cc(-c2ccc(Cl)cc2)n(-c2ccc(Cl)cc2)n1 | 5.41 |  |
| CC(=O)N[C@H](C(=O)NCc1cc(-c2ccc(Cl)cc2)n(-c2ccc(Cl)cc2)n1)C(C)C | 5.69 |  |
| N/C(=N\S(=O)(=O)c1ccccc1)NCc1cc(-c2ccc(Cl)cc2)n(-c2ccc(Cl)cc2)n1 | 7.03 | Papp [3]: 3 ×10⁻⁶ cm/s; Drug uptake [4]: 1920 ng/mL; half-life [5]: 4.82 h; clearance [6]: 3 mL/min/kg; Tmax [7]: 2 h; AUC(0-inf) [8]: 5570 ng·h/mL; AUC(0-inf) [9]: 4450 ng·h/mL; bioavailability [10]: 39.9%; half-life [11]: 3.37 h; pIC50 [2]: 5.85; Cmax [12]: 560 ng/mL |
| O=C(CCc1ccccc1)NCc1cc(-c2ccc(Cl)cc2)n(-c2ccc(Cl)cc2)n1 | 6.58 |  |
| CC(=O)NCc1cc(-c2ccc(Cl)cc2)n(-c2ccc(Cl)cc2)n1 | 5.75 |  |
| NC(C(=O)NCc1cc(-c2ccc(Cl)cc2)n(-c2ccc(Cl)cc2)n1)c1ccccn1 (configuration not stated) | 6.64 |  |
| CN(C)[C@@H](CO)C(=O)NCc1cc(-c2ccc(Cl)cc2)n(-c2ccc(Cl)cc2)n1 | 5.40 |  |
| O=C(NCc1cc(-c2ccc(Cl)cc2)n(-c2ccc(Cl)cc2)n1)C(O)c1ccccc1 (configuration not stated) | 6.80 |  |
| CN(C)[C@@H](CO)CNC(=O)c1cc(-c2ccc(Cl)cc2)n(-c2ccc(Cl)cc2)n1 | 6.16 |  |
| N[C@@H](C(=O)NCc1cc(-c2ccc(Cl)cc2)n(-c2ccc(Cl)cc2)n1)c1ccccc1 | 6.43 |  |
| CC(=O)/N=C(\N)NCc1cc(-c2ccc(Cl)cc2)n(-c2ccc(Cl)cc2)n1 | 5.81 |  |
| N[C@@H](Cc1ccccc1)C(=O)NCc1cc(-c2ccc(Cl)cc2)n(-c2ccc(Cl)cc2)n1 | 6.55 |  |
| O=C(Cc1ccccc1)NCc1cc(-c2ccc(Cl)cc2)n(-c2ccc(Cl)cc2)n1 | 6.73 |  |
| CS(=O)(=O)/N=C(\N)NCc1cc(-c2ccc(Cl)cc2)n(-c2ccc(Cl)cc2)n1 | 6.40 |  |
| N/C(=N\S(=O)(=O)C1CCCCC1)NCc1cc(-c2ccc(Cl)cc2)n(-c2ccc(Cl)cc2)n1 | 6.12 |  |
| CS(=O)(=O)NCc1cc(-c2ccc(Cl)cc2)n(-c2ccc(Cl)cc2)n1 | 5.66 |  |
| NC(=O)/N=C(\N)NCc1cc(-c2ccc(Cl)cc2)n(-c2ccc(Cl)cc2)n1 | 5.95 |  |

Now those with a higher pIC50 [1], led by results:

| pIC50 [1] | Structure (SMILES) | other results |
| --- | --- | --- |
| 7.51 | CS(=O)(=O)/N=C(\NCc1ccccc1)NCc1cc(-c2ccc(Cl)cc2)n(-c2ccc(Cl)cc2)n1 | pIC50 [2]: 5.96 |
| 7.22 | COc1cccc(S(=O)(=O)/N=C(\N)NCc2cc(-c3ccc(Cl)cc3)n(-c3ccc(Cl)cc3)n2)c1 | pIC50 [2]: 5.69 |
| 7.70 | CS(=O)(=O)/N=C(\NCc1cccc(Cl)c1)NCc1cc(-c2ccc(Cl)cc2)n(-c2ccc(Cl)cc2)n1 |  |
| 7.47 | CS(=O)(=O)/N=C(\NCc1ccccn1)NCc1cc(-c2ccc(Cl)cc2)n(-c2ccc(Cl)cc2)n1 |  |
| 7.28 | N[C@H](C(=O)NCc1cc(-c2ccc(Cl)cc2)n(-c2ccc(Cl)cc2)n1)c1ccccc1 | pIC50 [2]: 5.58 |
| 7.59 | CS(=O)(=O)/N=C(/NCc1cc(-c2ccc(Cl)cc2)n(-c2ccc(Cl)cc2)n1)NCc1cccs1 |  |
| 7.25 | CC(=O)NC(C(=O)NCc1cc(-c2ccc(Cl)cc2)n(-c2ccc(Cl)cc2)n1)c1ccccn1 (configuration not stated) | pIC50 [2]: 5.38 |
| 7.38 | CC(=O)N[C@H](C(=O)NCc1cc(-c2ccc(Cl)cc2)n(-c2ccc(Cl)cc2)n1)c1ccccc1 | pIC50 [2]: 5.30 |
| 7.28 | CS(=O)(=O)/N=C(/NCc1cc(-c2ccc(Cl)cc2)n(-c2ccc(Cl)cc2)n1)NCC1CC1 | pIC50 [2]: 5.78 |
| 7.35 | CS(=O)(=O)/N=C(/NCc1cc(-c2ccc(Cl)cc2)n(-c2ccc(Cl)cc2)n1)N[C@H](CO)c1ccccc1 |  |
| 7.22 | CS(=O)(=O)N[C@H](C(=O)NCc1cc(-c2ccc(Cl)cc2)n(-c2ccc(Cl)cc2)n1)c1ccccc1 | pIC50 [2]: < 5.00 |
| 7.25 | N/C(=N\S(=O)(=O)c1cccc(F)c1)NCc1cc(-c2ccc(Cl)cc2)n(-c2ccc(Cl)cc2)n1 | pIC50 [2]: 5.87 |
| 7.28 | CN(C)[C@H](C(=O)NCc1cc(-c2ccc(Cl)cc2)n(-c2ccc(Cl)cc2)n1)c1ccccc1 | pIC50 [2]: 5.76 |

Reference: ChEMBL document CHEMBL5241134, “Discovery of orally bioavailable inhibitors of MALT1 with in vivo activity for psoriasis” (Bioorg Med Chem Lett, 2023)
